Data on 59 compounds can be found in patent publication US6362369B1, “Phthalic acid diamide derivatives fluorine-containing aniline compounds as starting material, agricultural and horticultural insecticides, and a method for application of the insecticides” (Nihon Nohyaku Co., Ltd., priority 1997, dated 2002).

In the first assay the test system is diamondback moth (Plutella xylostella). The experiment in a line: Insecticidal effect on diamondback moth (Test Example 1). The assay is classed as in vivo. The following applies: diamondback moth; judged by the criterion of Test Example 1. In short, it runs like this: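 Chinese cabbage seedlings carrying eggs laid by released adult moths were immersed in treatment, air-dried and held at 25° C. Hatched insects were counted six days after immersion, and mortality was calculated and scored against a fixed criterion. Three replicate groups of 10 insects were used.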
Consider `CCOc1cc(C(F)(C(F)(F)F)C(F)(F)F)ccc1NC(=O)c1cccc(I)c1C(=O)NC(C)(C)C` [compound 1694], for which the “Insecticidal effect (Test Example 1), judged from mortality” value (“Insecticidal effect … from mortality” for short) is given as “A (100)”.

For `CC(C)c1cc(C(F)(C(F)(F)F)C(F)(F)F)ccc1NC(=O)c1cccc(I)c1C(=O)NC(C)(C)C` [compound 1692], the “Insecticidal effect … from mortality” value is given as “A (100)”.

With `CC(C)NC(=O)c1cccc(F)c1C(=O)Nc1ccc(C(F)(F)C(F)(F)F)cc1F` [compound 1515], the “Insecticidal effect … from mortality” value is on record as “A (100)”.

For `Cc1cc(C(F)(F)C(F)(F)F)ccc1NC(=O)c1c(Cl)cccc1C(=O)NCc1ccccc1F` [compound 1469], the “Insecticidal effect … from mortality” value was “A (100)”.

Regarding `Cc1cc(C(F)(F)C(F)(F)F)ccc1NC(=O)c1c(I)cccc1C(=O)N[C@@H](C)CO` [compound 1518], the “Insecticidal effect … from mortality” value is reported as “A (100)”.

Consider `Cc1cc(C(F)(C(F)(F)F)C(F)(F)F)ccc1NC(=O)c1cccc([S+]([O-])C(F)(F)F)c1C(=O)NC(C)C` (centres unmarked) [compound 1805], for which the “Insecticidal effect … from mortality” value is recorded as “A (100)”.

Turning to `CC(C)NC(=O)c1c(I)cccc1C(=O)Nc1ccc(C(F)(C(F)(F)F)C(F)(F)F)cc1-c1ccccc1` [compound 1767], the “Insecticidal effect … from mortality” value is recorded as “A (100)”.

Turning to `CCNC(=O)c1cccc(F)c1C(=O)Nc1ccc(C(F)(F)C(F)(F)F)cc1F` [compound 1511], the “Insecticidal effect … from mortality” value is “A (100)”.

The assay is the same for the next values; noted with them: diamondback moth; judged by the mortality criterion of Test Example 1.
For `CC(C)NC(=O)c1cc(Cl)ccc1C(=O)Nc1ccc(F)c(F)c1` [compound 174], the “Insecticidal effect, Test Example 1” value is “A (100)”.

As for `CC(C)NC(=O)c1cccc(Cl)c1C(=O)Nc1ccc(OC(F)F)c(F)c1` [compound 233], the “Insecticidal effect, Test Example 1” value is reported as “A (100)”.

`Cc1cc(Oc2c(F)c(F)c(F)c(F)c2F)ccc1NC(=O)c1ccccc1C(=O)NC(C)C` [compound 73]: the “Insecticidal effect, Test Example 1” value was “A (100)”.

As to `CC(=O)c1ccc(NC(=O)c2c(Cl)cccc2C(=O)NC(C)C)cc1` [compound 207], the “Insecticidal effect, Test Example 1” value is on record as “A (100)”.

As to `Cc1c(NC(=O)c2cccc(Br)c2C(=O)NC(C)C)ccc(OC(F)F)c1C` [compound 295], the “Insecticidal effect, Test Example 1” value is given as “D (79-50)”.

`CC(C)NC(=O)c1cc(Cl)ccc1C(=O)Nc1ccccc1` [compound 168]: the “Insecticidal effect, Test Example 1” value was “A (100)”.

For the compound `CC(C)NC(=O)c1ccccc1C(=O)Nc1ccccc1` [compound 20], the “Insecticidal effect, Test Example 1” value was “A (100)”.

Regarding `Cc1cc(Oc2cccc(C(F)(F)F)c2)ccc1NC(=O)c1ccccc1C(=O)NC(C)C` [compound 74], the “Insecticidal effect, Test Example 1” value is on record as “A (100)”.

For the compound `CNC(=O)c1c(C(=O)Nc2cc(Cl)ccc2C)cccc1[N+](=O)[O-]` [compound 3], the “Insecticidal effect, Test Example 1” value is given as “C (89-80)”.

`Cc1cc(Oc2cccc(C(F)(F)F)c2)ccc1NC(=O)c1cccc(I)c1C(=O)NC(C)C` [compound 398]: the “Insecticidal effect, Test Example 1” value was “A (100)”.

Staying with this assay, now noted: diamondback moth; mortality judged by criterion of Test Example 1.
With `Cc1ccc(CNC(=O)c2c(Cl)cccc2C(=O)Nc2ccc(C(F)(F)C(F)(F)F)cc2C)cc1` [compound 1341], the “Insecticidal effect, Test Example 1” value was “A (100)”.

On to `Cc1cc(OC(=C(C(F)(F)F)C(F)(F)F)C(F)(F)C(F)(F)F)ccc1NC(=O)c1cccc(Cl)c1C(=O)NC(C)C` [compound 1291], for which the “Insecticidal effect, Test Example 1” value is “A (100)”.

As for `CCN(CC)C(=O)c1cccc([N+](=O)[O-])c1C(=O)Nc1ccc(OC(F)(F)C(F)F)cc1C` [compound 1137], the “Insecticidal effect, Test Example 1” value is recorded as “A (100)”.

Take `Cc1cc(C(F)(F)C(F)(F)F)ccc1NC(=O)c1cccc(Cl)c1C(=O)NCCc1ccccc1Cl` [compound 1356]: the “Insecticidal effect, Test Example 1” value was “A (100)”.

Turning to `Cc1cc(C(F)(F)C(F)(F)F)ccc1NC(=O)c1c(I)cccc1C(=O)NCC(C)C` [compound 1006], the “Insecticidal effect, Test Example 1” value is reported as “A (100)”.

Take `COc1cccc(CNC(=O)c2cccc(Cl)c2C(=O)Nc2ccc(C(F)(F)C(F)(F)F)cc2C)c1` [compound 1346]: the “Insecticidal effect, Test Example 1” value is recorded as “A (100)”.

As to `Cc1ccccc1CNC(=O)c1cccc(Cl)c1C(=O)Nc1ccc(C(F)(F)C(F)(F)F)cc1C` [compound 1338], the “Insecticidal effect, Test Example 1” value is on record as “A (100)”.

Consider `Cc1cc(C(F)(F)C(F)(F)F)ccc1NC(=O)c1ccccc1C(=O)NCC(O)Cc1ccccc1` (centres unmarked) [compound 1398], for which the “Insecticidal effect, Test Example 1” value is given as “A (100)”.

As for `CCN(CC)C(=O)c1c(OC(F)(F)F)cccc1C(=O)Nc1ccc(C(F)(C(F)(F)F)C(F)(F)F)cc1C` [compound 1238], the “Insecticidal effect, Test Example 1” value is listed as “A (100)”.

For the compound `CC(C)(C)NC(=O)c1c(I)cccc1C(=O)Nc1ccc2nc(C(F)(F)C(F)(F)F)oc2c1` [compound 1181], the “Insecticidal effect, Test Example 1” value is given as “A (100)”.

For the compound `Cc1cc(OC(F)F)ccc1NC(=O)c1cccc(Cl)c1C(=O)NCc1ccccc1Cl` [compound 1423], the “Insecticidal effect, Test Example 1” value is recorded as “A (100)”.

`CCOCCNC(=O)c1cccc(I)c1C(=O)Nc1ccc(C(F)(F)C(F)(F)F)cc1C` [compound 984]: the “Insecticidal effect, Test Example 1” value is on record as “A (100)”.

Take `Cc1cc(OC(F)F)ccc1NC(=O)c1cccc(Cl)c1C(=O)NCc1ccccc1` [compound 1421]: the “Insecticidal effect, Test Example 1” value is listed as “A (100)”.

Turning to `Cc1cc(C(F)(F)C(F)(F)F)ccc1NC(=O)c1c(Cl)cccc1C(=O)NCc1ccncc1` [compound 1395], the “Insecticidal effect, Test Example 1” value is reported as “A (100)”.

On to `CCN(CC)C(=O)c1c(I)cccc1C(=O)Nc1ccc2nc(C(F)(F)C(F)(F)F)oc2c1` [compound 1182], for which the “Insecticidal effect, Test Example 1” value is reported as “A (100)”.

Regarding `Cc1cc(OC(F)F)ccc1NC(=O)c1c(I)cccc1C(=O)NCc1ccccc1` [compound 1431], the “Insecticidal effect, Test Example 1” value was “A (100)”.

For the compound `CCN(CC)C(=O)c1c(I)cccc1C(=O)Nc1ccc2oc(-c3ccc(C(F)(F)F)cc3)nc2c1` [compound 1175], the “Insecticidal effect, Test Example 1” value is “A (100)”.

`CC(C)(C)NC(=O)c1ccccc1C(=O)Nc1ccc2c(c1)OC(F)(F)C(F)(F)O2` [compound 1065]: the “Insecticidal effect, Test Example 1” value was “A (100)”.

Staying with this assay, now noted: mortality judged according to the criterion shown in Test Example 1.
Turning to `CC(C)NC(=O)c1cccc(I)c1C(=O)Nc1ccc(C=C(Cl)C(F)(F)F)cc1` [compound 918], the “Insecticidal effect on diamondback moth (Test Example 1), judged grade” value (shortened to “Insecticidal effect on diamondback moth”) is “A (100)”.

Consider `CC(C)NC(=O)c1c(C(=O)Nc2cccc(F)c2)cccc1[N+](=O)[O-]` [compound 593], for which the “Insecticidal effect on diamondback moth” value is “A (100)”.

For `CCc1ccc(Cl)c(CC)c1NC(=O)c1cccc(Cl)c1C(=O)NC(C)C` [compound 924], the “Insecticidal effect on diamondback moth” value is reported as “A (100)”.

Turning to `CC(C)NC(=O)c1cccc(-c2ccccc2)c1C(=O)Nc1ccc(OC(F)(F)F)cc1` [compound 808], the “Insecticidal effect on diamondback moth” value is reported as “A (100)”.

For `CC(C)NC(=O)c1c(C(=O)Nc2ccc(F)cc2F)cccc1[N+](=O)[O-]` [compound 639], the “Insecticidal effect on diamondback moth” value is “A (100)”.

In the case of `CC(C)NC(=O)c1cccc(Cl)c1C(=O)Nc1ccc(C=C(Cl)C(F)(F)F)cc1` [compound 912], the “Insecticidal effect on diamondback moth” value is listed as “A (100)”.

Consider `COCCNC(=O)c1c(C(=O)Nc2cc(Cl)ccc2C)cccc1[N+](=O)[O-]` [compound 871], for which the “Insecticidal effect on diamondback moth” value is “A (100)”.

Regarding `Cc1cc(OC(F)F)ccc1NC(=O)c1cccc([N+](=O)[O-])c1C(=O)N(C)C(C)C` [compound 825], the “Insecticidal effect on diamondback moth” value is reported as “A (100)”.

In the case of `Cc1cc(Sc2ccc(Cl)cc2)ccc1NC(=O)c1c(I)cccc1C(=O)NC(C)C` [compound 463], the “Insecticidal effect on diamondback moth” value is “A (100)”.

For `Cc1cccc(C)c1NC(=O)c1cccc([N+](=O)[O-])c1C(=O)NC(C)C` [compound 650], the “Insecticidal effect on diamondback moth” value is on record as “A (100)”.

For `CSc1ccc(NC(=O)c2cccc([N+](=O)[O-])c2C(=O)NC(C)C)c(C)c1C` [compound 720], the “Insecticidal effect on diamondback moth” value is given as “A (100)”.

As for `COc1cccc(NC(=O)c2cccc([N+](=O)[O-])c2C(=O)NC(C)C)c1` [compound 613], the “Insecticidal effect on diamondback moth” value is “A (100)”.

In the case of `C=CCNC(=O)c1ccccc1C(=O)Nc1ccc(C(F)(F)F)cc1` [compound 865], the “Insecticidal effect on diamondback moth” value is given as “A (100)”.

Consider `CC(C)NC(=O)c1cccc(F)c1C(=O)Nc1cc(Cl)c(OC(F)F)c(Cl)c1` [compound 560], for which the “Insecticidal effect on diamondback moth” value was “A (100)”.

`CCC(C)NC(=O)c1cccc(Cl)c1C(=O)Nc1ccc(OC(F)F)cc1C` (centres unmarked) [compound 837]: the “Insecticidal effect on diamondback moth” value is given as “A (100)”.

Consider `Cc1cccc(NC(=O)c2cccc([N+](=O)[O-])c2C(=O)NC(C)C)c1` [compound 600], for which the “Insecticidal effect on diamondback moth” value is recorded as “A (100)”.

For the compound `CC(C)NC(=O)c1c(C(=O)Nc2ccc(Cl)cc2)cccc1[N+](=O)[O-]` [compound 588], the “Insecticidal effect on diamondback moth” value is reported as “A (100)”.

On to `COC(=O)c1cccc(C(=O)NC(C)C)c1C(=O)Nc1ccc(Cl)cc1C` [compound 802], for which the “Insecticidal effect on diamondback moth” value is “D (79-50)”.

Consider `CC(C)NC(=O)c1c(C(=O)Nc2ccc(SCC(F)(F)F)cc2)cccc1[N+](=O)[O-]` [compound 624], for which the “Insecticidal effect on diamondback moth” value was “A (100)”.

With `CC(C)NC(=O)c1cccc(I)c1C(=O)Nc1cc(Cl)c(OC(F)F)c(Cl)c1` [compound 449], the “Insecticidal effect on diamondback moth” value is listed as “A (100)”.

For the compound `Cc1ccc([N+](=O)[O-])cc1NC(=O)c1cccc([N+](=O)[O-])c1C(=O)NC(C)C` [compound 708], the “Insecticidal effect on diamondback moth” value is recorded as “D (79-50)”.

As to `CSc1ccccc1NC(=O)c1cccc([N+](=O)[O-])c1C(=O)NC(C)C` [compound 622], the “Insecticidal effect on diamondback moth” value is “A (100)”.

Turning to `CC(C)NC(=O)c1c(C(=O)Nc2ccc(F)c(F)c2F)cccc1[N+](=O)[O-]` [compound 645], the “Insecticidal effect on diamondback moth” value is recorded as “A (100)”.
